PMC5602538, “Assessment of the Drug Interaction Potential of Unconjugated and GalNAc3-Conjugated 2′-MOE-ASOs” (Molecular Therapy. Nucleic Acids, 2017)
{GalNAc3} = trishexylamino-C6 triantennary GalNAc conjugate; e = 2'-O-(2-methoxyethyl) (MOE); d = 2'-deoxy (DNA)

Experiments:
Format in all cases: in vitro ADME
OAT1 = test system: T1, OAT1; assay: OAT1 substrate uptake study in MDCK cells; conditions: 10 μM ASO
T1 construct: expressed in transfected cells; host or cells: MDCK-II
Procedure: (§1) A 96-well cell culture plate containing a monolayer of MDCK-II cells grown on a permeable support and a corresponding receiver tray was used. The basolateral compartment of the culture plate and wells were washed with warm HBSS three times, with wells of the culture plate serving as the apical compartment. The wash was aspirated by adding 150 μL of 37°C HBSS to both compartments. Plates were incubated at 37°C with orbital shaking at 60 rpm for 15 min for OAT1, OAT3, OCT1, OCT2, OATP1B1, and OATP1B3 (±5 min). The pre-incubation buffer from both compartments was aspirated and 150 μL of the following was added to the basal compartment. For the probe substrate transport assay, HBSS in each well contained one of following probe substrates (positive control for transport), OCT1, 2 μM [^3H]-MPP^+; OCT2, 10 μM [^14C]-metformin; OAT1, 2 μM [^3H]-p-aminohippurate; OAT3, 10 μM [^3H]-p-aminohippurate; OATP1B1, 2 μM [^3H]-estradiol-17 β-D-glucuronide; and OATP1B3, 2 μM [^3H]-cholecystokinin octapeptide (CCK-8). […] Inhibition studies contained HBSS in each well, the probe substrate, and 100 μM of each test article, whereas substrate studies contained HBSS in each well and 10 μM of each test article. […] Samples containing probe substrate were added to 200 μL of scintillation fluid and counted on a 1450 Microbeta (PerkinElmer), whereas samples containing the test article were kept frozen. Test article concentrations, including control samples, were evaluated by an LC-MS method.
(§2) Signal to noise for probe substrates was calculated by dividing the uptake of the probe substrate in transporter-expressing cells by the uptake of probe substrate in control cells not expressing the transporter of interest. Percent inhibition was calculated by dividing the net-transporter-mediated substrate uptake in the presence of the test article or the reference inhibitor by the net-transporter-mediated substrate uptake in the absence of the inhibitor according to the equation: %inhibition=100−(100×(transporter-mediateduptake)withinhibitor/(transporter-mediateduptake)withoutinhibitor).

OAT3 = test system: T2, OAT3; assay: OAT3 substrate uptake study in MDCK cells; conditions: 10 μM ASO
T2 construct: expressed in transfected cells; host or cells: MDCK-II
Procedure: as §1, §2

OCT1 = test system: T3, OCT1; assay: OCT1 substrate uptake study in MDCK cells; conditions: 10 μM ASO
T3 construct: expressed in transfected cells; host or cells: MDCK-II
Procedure: as §1, §2

OATP1B1 = test system: T4, OATP1B1; assay: OATP1B1 substrate uptake study in MDCK cells; conditions: 10 μM ASO
T4 construct: expressed in transfected cells; host or cells: MDCK-II
Procedure: as §1, §2

OATP1B3 = test system: T5, OATP1B3; assay: OATP1B3 substrate uptake study in MDCK cells; conditions: 10 μM ASO
T5 construct: expressed in transfected cells; host or cells: MDCK-II
Procedure: as §1, §2

P-gp = test system: T6, P-gp; assay: P-gp substrate study, bi-directional flux in MDCK-MDR1 cells; conditions: 10 μM ASO, Papp B to A / Papp A to B
T6 construct: host or cells: MDCK-MDR1 (MDCK cells stably transfected with MDR1)
Procedure: MDCK-MDR1 cells and MDCK-II cells transfected with BCRP were washed with HBSS at 37°C. Wells of the culture plate served as the apical compartment, and 150 μL of HBSS solutions was added to the apical wells. These solutions also contain one of the following: vehicle (for probe substrate controls), 100 μM test article (for test article inhibition experiments), 1 μM Ko143 (for BCRP inhibition), or 3 μM elacridar (for P-gp inhibition). A 96-well receiver tray was prepared with each well containing 300 μL of buffer solution corresponding to the apical wells. Receiver tray wells served as the basal compartment. The plate and receiver tray were assembled and incubated at 37°C for 30 min. The solution was then aspirated from the apical compartment and the 96-well plate was removed from the receiver tray. Donor and receiver wells for inhibition or donor (containing substrate) and receiver (without substrate) wells for substrate studies were then prepared for bi-directional flux studies. For the probe substrate transport assays, HBSS in each donor well contained one of the following probe substrates: BCRP, 2 μM [^3H]-prazosin; or P-gp, 100 nM [^3H]-quinidine. For positive control inhibition assays, HBSS contained the reference inhibitor in both donor and receiver wells, with the probe substrate only in donor wells. […] These samples were counted on a 1450 Microbeta (PerkinElmer). For samples containing test articles, samples were quantitated using LC-MS.
For BCRP and P-gp, apparent permeability Papp was determined using the equation Papp=(Vr/(A×C0))×(Cr/Δt) whereby Papp is the apparent permeability, Vr is the volume of the receiver compartment (mL), C0 is the initial concentration of the donor solution, A is the monolayer area (cm^2), Cr is the receiver well concentration at the end of the incubation, and Δt represents the change in time from t = 0 (s). The efflux ratio (ER) was determined by dividing Papp in the B→A direction by that in the A→B direction as: ER=Papp(B→A)/Papp(A→B).

For “ISIS 304801: 20-mer (5-10-5) 2′-MOE gapmer PS backbone antisense inhibitor of apoC-III, sequence AGCTTCTTGTCCAGCTTTAT (sugars from the 5' end e5 d10 e5, all phosphorothioate, methylation of C not given here)”, the “OAT1-mediated uptake relative to corresponding controls” value (OAT1) was < 2 fold, the “OAT3-mediated uptake relative to corresponding controls” value (OAT3) was < 2 fold and the “OCT1-mediated uptake relative to corresponding controls” value (OCT1) was < 2 fold. The “OATP1B1-mediated uptake relative to corresponding controls” value (OATP1B1) was < 2 fold, the “OATP1B3-mediated uptake relative to corresponding controls” value (OATP1B3) was < 2 fold and the “Efflux ratio, P-gp” value (P-gp) was ≤ 2.0.

In the case of “ISIS 681257: 20-mer 2′-MOE gapmer PS/PO mixed backbone ASO conjugated to 5′-trishexylamino GalNAc3, targets Lp(a), sequence TGCTCCGTTGGTGCTTGTTC (5' {GalNAc3}, sugars by position and backbone not given here; 2'-MOE gapmer with mixed PS/PO backbone)”, the “OAT1-mediated uptake relative to corresponding controls” value (OAT1) is reported as < 2 fold, the “OAT3-mediated uptake relative to corresponding controls” value (OAT3) is reported as < 2 fold and the “OCT1-mediated uptake relative to corresponding controls” value (OCT1) is reported as < 2 fold. The “OATP1B1-mediated uptake relative to corresponding controls” value (OATP1B1) was < 2 fold, the “OATP1B3-mediated uptake relative to corresponding controls” value (OATP1B3) was < 2 fold and the “Efflux ratio, P-gp” value (P-gp) was ≤ 2.0.

For “ISIS 420915: 20-mer 2′-MOE gapmer PS backbone antisense inhibitor of transthyretin, sequence TCTTGGTTACATGAAATCCC (all phosphorothioate, sugars by position and methylation of C not given here; 2'-MOE gapmer)”, the “OAT1-mediated uptake relative to corresponding controls” value (OAT1) was < 2 fold, the “OAT3-mediated uptake relative to corresponding controls” value (OAT3) was < 2 fold and the “OCT1-mediated uptake relative to corresponding controls” value (OCT1) was < 2 fold. For the same substance, the “OATP1B1-mediated uptake relative to corresponding controls” value (OATP1B1) was < 2 fold, the “OATP1B3-mediated uptake relative to corresponding controls” value (OATP1B3) was < 2 fold and the “Efflux ratio, P-gp” value (P-gp) was ≤ 2.0.
